Experimental data as given in ChEMBL document CHEMBL1833973, “Biological evaluation and docking studies of natural isocoumarins as inhibitors for human kallikrein 5 and 7” (Bioorg Med Chem Lett, 2011).
pIC50, pKi: −log10 of the molar value. Active and inactive are the calls of the source. The rule behind the calls is not given here.

Key:
Kallikrein-7 [1] = target: T1, Kallikrein-7 (Homo sapiens, UniProt P49862); assay: Competitive inhibition of human kallikrein 7 using Abz-KLYSSKQ-EDDnp as substrate by Lineweaver-Burk plot analysis
Target sequence in this assay (P49862 30-253 limits assumed): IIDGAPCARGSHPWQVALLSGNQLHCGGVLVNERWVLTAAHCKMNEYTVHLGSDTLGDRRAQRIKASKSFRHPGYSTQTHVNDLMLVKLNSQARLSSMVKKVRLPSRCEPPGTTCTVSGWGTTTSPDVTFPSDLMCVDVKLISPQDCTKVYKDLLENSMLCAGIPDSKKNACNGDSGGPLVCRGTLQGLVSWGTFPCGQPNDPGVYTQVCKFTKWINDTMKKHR

Kallikrein-5 [2] = target: T2, Kallikrein-5 (Homo sapiens, UniProt Q9Y337); assay: Inhibition of human kallikrein 5 using Abz-KLRSSKQ-EDDnp as substrate by spectrofluorimetric assay
T2 sequence (Q9Y337 whole entry): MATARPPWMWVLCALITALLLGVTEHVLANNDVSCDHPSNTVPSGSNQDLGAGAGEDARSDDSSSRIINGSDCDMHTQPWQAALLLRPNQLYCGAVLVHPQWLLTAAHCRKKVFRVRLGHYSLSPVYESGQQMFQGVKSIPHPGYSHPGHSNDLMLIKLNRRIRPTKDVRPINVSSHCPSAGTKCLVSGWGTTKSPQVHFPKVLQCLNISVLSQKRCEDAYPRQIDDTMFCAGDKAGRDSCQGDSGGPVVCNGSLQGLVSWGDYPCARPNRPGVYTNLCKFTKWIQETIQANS

Kallikrein-7 [3] = target: T1, Kallikrein-7; assay: Inhibition of human kallikrein 7 using Abz-KLYSSKQ-EDDnp as substrate by Lineweaver-Burk plot analysis
Target sequence in this assay (P49862 whole entry): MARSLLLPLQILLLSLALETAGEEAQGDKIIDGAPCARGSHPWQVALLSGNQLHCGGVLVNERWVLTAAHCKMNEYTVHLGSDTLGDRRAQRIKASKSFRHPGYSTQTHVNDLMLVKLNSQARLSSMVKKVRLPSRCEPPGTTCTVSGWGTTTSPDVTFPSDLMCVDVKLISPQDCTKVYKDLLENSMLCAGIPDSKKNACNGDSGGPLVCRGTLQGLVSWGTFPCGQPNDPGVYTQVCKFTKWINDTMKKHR

Kallikrein-7 [4] = target: T1, Kallikrein-7; assay: Inhibition of human kallikrein 7 using Abz-KLYSSKQ-EDDnp as substrate by spectrofluorimetric assay
Target sequence in this assay (P49862 whole entry): as above

Kallikrein-5 [5] = target: T2, Kallikrein-5; assay: Inhibition of human kallikrein 5 using Abz-KLRSSKQ-EDDnp as substrate by Lineweaver-Burk plot analysis

Row | Compound | inhibition (Kallikrein-7 [1]) | pIC50 (Kallikrein-5 [2]) | pKi (Kallikrein-7 [3]) | pIC50 (Kallikrein-7 [4]) | pKi (Kallikrein-5 [5])
1 | COc1cc2c(OC)c3cc(C)oc(=O)c3c(O)c2c(O)c1-c1c(OC)cc2c(OC)c3cc(C)oc(=O)c3c(O)c2c1O | Active | 4.14 | 4.91 | 3.95 | 4.61
2 | COc1cc(O)c2c(O)c3c(=O)oc(C)cc3c(OC)c2c1 [PAEPALANTINE] | – | 3.43 | 4.15 | 3.78 | 4.32
3 | COc1cc2cc3c(c(O)c2c(O)c1-c1c(OC)cc2cc4c(c(O)c2c1O)C(=O)O[C@H](C)C4)C(=O)O[C@H](C)C3 [VIOXANTHIN] | – | 4.27 | 4.43 | 3.87 | 4.64
